Test [1] is described as follows: Scratched human teeth, SEM comparison of theobromine and NaF. As to conditions: 90 minutes incubation; NaF 0.25%, theobromine 200 mg/L.
Protocol: (§1) Isolated human teeth were scratched with a diamond scribe on the enamel surface. Each tooth was then etched for 15 seconds in 0.1 M HCl, rinsed with distilled water, then exposed for 15 seconds to a 0.1 M oxalic acid solution, and then rinsed once more with distilled water. […] The pH was adjusted to 7.4-7.6, after which a 0.2 M CaCl2 solution was added with stirring (the solution turns immediately turbid from Ca-phosphate precipitation). The pH was checked and adjusted immediately to between 7.4 and 7.6, as required. […] A volume ratio of about 3:5 Na2HPO4 solution-to-CaCl2 solution was used to avoid any excess of either Ca or P. The teeth were so incubated at room temperature for about 90 minutes, after which they were removed from solution, carefully rinsed several times with distilled water, and then dried in a desiccator for 24 hours. After drying, the teeth were carbon-coated for viewing via scanning electron microscopy (SEM).
The conditions of test [2]: deposition in drilled holes; NaF 0.25%, theobromine 200 mg/L.
Protocol: as §1
Using a dental drill, holes were drilled into the enamel surfaces of isolated human teeth, with each tooth receiving three holes in three separate locations. […] The teeth were visualized via SEM, as in EXAMPLE 4, and the amount of calcium phosphate deposition measured for each experimental condition.

Molecules are shown by their SMILES.

Consider `[F-].[Na+]` [NaF, sodium fluoride], for which, in test [1], the “appearance of diamond-scribe scratch in SEM” value is “partly-filled”. Moreover, in test [2], the “Calcium Phosphate (μm) ± S.D.” value is 70 ± 8.8 μm.

Source of the values: patent US9610235B2, “Methods and compositions to improve mechanical resistance of teeth” (THEOCORP HOLDING CO., LLC, priority 2010, dated 2017).
